Reference: patent US7118895B2, “Process for producing aglycon by using diglycosidase and flavor-improved food containing the aglycon and converting agent to be used in the process” (Amano Enzyme Inc., priority 2000, dated 2006)

Columns and labels:
[1] = tested on: Diglycosidase derived from P. multicolor; test: Reactivity toward various isoflavone glycosides (HPLC); assay type: biochemical, Penicillium multicolor; set-up: glucoside / aglycon: unit not given here; settings: 55 °C, pH 4.0
Summary of the method: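 Aglycone liberation was measured by reversed-phase HPLC (260 nm, calibration-curve quantitation) after ethanol extraction at 0, 1, 3 and 6 h. Reactions ran at 55° C, pH 4.0 (20 mM acetate), with each glycoside (from 2 mM methanol stock) and 0.75 AU/mL enzyme solution.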

Crude diglycosidase = test: Examination of temperature in the conversion into isoflavone aglycons by diglycosidase using soybean materials; assay type: biochemical, Penicillium multicolor IAM7153; set-up: Decomposition efficiency of glycitin family in roasted soy flour / Decomposition efficiency of daidzin family in roasted soy flour / Decomposition efficiency of genistin family in soymilk / Decomposition efficiency of daidzin family in soymilk / Decomposition efficiency of glycitin family in defatted soybean / Decomposition efficiency of daidzin family in defatted soybean: concentration or dose not given beside the values
Summary of the method: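 Temperature series (30-80° C.) of crude diglycosidase, diluted to 1.88 AU/mL in 20 mM acetate pH 4.0, acting on roasted soy flour, soymilk, defatted soybean or soy protein concentrate. Samples quenched with ethanol after 0-6 h, centrifuged, filtered and analyzed by HPLC for glycosides versus aglycons.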

[2] = 30 °C, heat treatment of enzyme: no, 0 h
[3] = 30 °C, heat treatment of enzyme: no, 1 h
[4] = 30 °C, heat treatment of enzyme: no, 3 h
[5] = 30 °C, heat treatment of enzyme: no, 6 h
[6] = 30 °C, heat treatment of enzyme: yes, 6 h
[7] = 45 °C, heat treatment of enzyme: no, 0 h
[8] = 45 °C, heat treatment of enzyme: no, 1 h
[9] = 45 °C, heat treatment of enzyme: no, 3 h
[10] = 45 °C, heat treatment of enzyme: no, 6 h
[11] = 45 °C, heat treatment of enzyme: yes, 6 h
[12] = 55 °C, heat treatment of enzyme: no, 0 h
[13] = 55 °C, heat treatment of enzyme: no, 1 h
[14] = 55 °C, heat treatment of enzyme: no, 3 h
[15] = 55 °C, heat treatment of enzyme: no, 6 h
[16] = 55 °C, heat treatment of enzyme: yes, 6 h
[17] = 65 °C, heat treatment of enzyme: no, 0 h
[18] = 65 °C, heat treatment of enzyme: no, 1 h
[19] = 65 °C, heat treatment of enzyme: no, 3 h
[20] = 65 °C, heat treatment of enzyme: no, 6 h
[21] = 65 °C, heat treatment of enzyme: yes, 6 h
[22] = 80 °C, heat treatment of enzyme: no, 0 h
[23] = 80 °C, heat treatment of enzyme: no, 1 h
[24] = 80 °C, heat treatment of enzyme: no, 3 h
[25] = 80 °C, heat treatment of enzyme: no, 6 h
[26] = 80 °C, heat treatment of enzyme: yes, 6 h

aglycon ([1]; Reaction time 0 h): 0
glucoside ([1]; Reaction time 0 h): 100
aglycon ([1]; Reaction time 1 h): 97.9
glucoside ([1]; Reaction time 1 h): 2.1
aglycon ([1]; Reaction time 3 h): 99.8
glucoside ([1]; Reaction time 3 h): 0.2
aglycon ([1]; Reaction time 6 h): 99.7
glucoside ([1]; Reaction time 6 h): 0.3
Decomposition efficiency of glycitin family in defatted soybean (Crude diglycosidase; 30° C., heat treatment of enzyme no, reaction time 0 h): not detected
Decomposition efficiency of glycitin family in defatted soybean (Crude diglycosidase; 30° C., heat treatment of enzyme no, reaction time 1 h): not detected
Decomposition efficiency of glycitin family in defatted soybean (Crude diglycosidase; 30° C., heat treatment of enzyme no, reaction time 3 h): not detected
Decomposition efficiency of glycitin family in defatted soybean (Crude diglycosidase; 30° C., heat treatment of enzyme no, reaction time 6 h): not detected
Decomposition efficiency of glycitin family in defatted soybean (Crude diglycosidase; 30° C., heat treatment of enzyme yes, reaction time 6 h): not detected
Decomposition efficiency of glycitin family in concentrated soybean protein (Crude diglycosidase; [2]): 52.2%
Decomposition efficiency of glycitin family in roasted soy flour (Crude diglycosidase; [2]): 50.9%
Decomposition efficiency of glycitin family in soymilk (Crude diglycosidase; [2]): 43.9%
Decomposition efficiency of glycitin family in concentrated soybean protein (Crude diglycosidase; [3]): 47.1%
Decomposition efficiency of glycitin family in roasted soy flour (Crude diglycosidase; [3]): 34.8%
Decomposition efficiency of glycitin family in soymilk (Crude diglycosidase; [3]): not detected
Decomposition efficiency of glycitin family in concentrated soybean protein (Crude diglycosidase; [4]): 39.1%
Decomposition efficiency of glycitin family in roasted soy flour (Crude diglycosidase; [4]): not detected
Decomposition efficiency of glycitin family in soymilk (Crude diglycosidase; [4]): not detected
Decomposition efficiency of glycitin family in concentrated soybean protein (Crude diglycosidase; [5]): 28.4%
Decomposition efficiency of glycitin family in roasted soy flour (Crude diglycosidase; [5]): not detected
Decomposition efficiency of glycitin family in soymilk (Crude diglycosidase; [5]): not detected
Decomposition efficiency of glycitin family in concentrated soybean protein (Crude diglycosidase; [6]): 52.8%
Decomposition efficiency of glycitin family in roasted soy flour (Crude diglycosidase; [6]): 51.4%
Decomposition efficiency of glycitin family in soymilk (Crude diglycosidase; [6]): 44.5%
Decomposition efficiency of glycitin family in defatted soybean (Crude diglycosidase; 45° C., heat treatment of enzyme no, reaction time 0 h): not detected
Decomposition efficiency of glycitin family in defatted soybean (Crude diglycosidase; 45° C., heat treatment of enzyme no, reaction time 1 h): not detected
Decomposition efficiency of glycitin family in defatted soybean (Crude diglycosidase; 45° C., heat treatment of enzyme no, reaction time 3 h): not detected
Decomposition efficiency of glycitin family in defatted soybean (Crude diglycosidase; 45° C., heat treatment of enzyme no, reaction time 6 h): not detected
Decomposition efficiency of glycitin family in defatted soybean (Crude diglycosidase; 45° C., heat treatment of enzyme yes, reaction time 6 h): not detected
Decomposition efficiency of glycitin family in concentrated soybean protein (Crude diglycosidase; [7]): 52.3%
Decomposition efficiency of glycitin family in roasted soy flour (Crude diglycosidase; [7]): 51.3%
Decomposition efficiency of glycitin family in soymilk (Crude diglycosidase; [7]): 42.6%
Decomposition efficiency of glycitin family in concentrated soybean protein (Crude diglycosidase; [8]): 30.2%
Decomposition efficiency of glycitin family in roasted soy flour (Crude diglycosidase; [8]): 12.4%
Decomposition efficiency of glycitin family in soymilk (Crude diglycosidase; [8]): not detected
Decomposition efficiency of glycitin family in concentrated soybean protein (Crude diglycosidase; [9]): 18.8%
Decomposition efficiency of glycitin family in roasted soy flour (Crude diglycosidase; [9]): 12.4%
Decomposition efficiency of glycitin family in soymilk (Crude diglycosidase; [9]): not detected
Decomposition efficiency of glycitin family in concentrated soybean protein (Crude diglycosidase; [10]): 7.5%
Decomposition efficiency of glycitin family in roasted soy flour (Crude diglycosidase; [10]): 5.9%
Decomposition efficiency of glycitin family in soymilk (Crude diglycosidase; [10]): not detected
Decomposition efficiency of glycitin family in concentrated soybean protein (Crude diglycosidase; [11]): 53.2%
Decomposition efficiency of glycitin family in roasted soy flour (Crude diglycosidase; [11]): 49.8%
Decomposition efficiency of glycitin family in soymilk (Crude diglycosidase; [11]): 45.4%
Decomposition efficiency of glycitin family in defatted soybean (Crude diglycosidase; 55° C., heat treatment of enzyme no, reaction time 0 h): not detected
Decomposition efficiency of glycitin family in defatted soybean (Crude diglycosidase; 55° C., heat treatment of enzyme no, reaction time 1 h): not detected
Decomposition efficiency of glycitin family in defatted soybean (Crude diglycosidase; 55° C., heat treatment of enzyme no, reaction time 3 h): not detected
Decomposition efficiency of glycitin family in defatted soybean (Crude diglycosidase; 55° C., heat treatment of enzyme no, reaction time 6 h): not detected
Decomposition efficiency of glycitin family in defatted soybean (Crude diglycosidase; 55° C., heat treatment of enzyme yes, reaction time 6 h): not detected
Decomposition efficiency of glycitin family in concentrated soybean protein (Crude diglycosidase; [12]): 52.3%
Decomposition efficiency of glycitin family in roasted soy flour (Crude diglycosidase; [12]): 50.5%
Decomposition efficiency of glycitin family in soymilk (Crude diglycosidase; [12]): 47.8%
Decomposition efficiency of glycitin family in concentrated soybean protein (Crude diglycosidase; [13]): 14.2%
Decomposition efficiency of glycitin family in roasted soy flour (Crude diglycosidase; [13]): not detected
Decomposition efficiency of glycitin family in soymilk (Crude diglycosidase; [13]): not detected
Decomposition efficiency of glycitin family in concentrated soybean protein (Crude diglycosidase; [14]): not detected
Decomposition efficiency of glycitin family in roasted soy flour (Crude diglycosidase; [14]): not detected
Decomposition efficiency of glycitin family in soymilk (Crude diglycosidase; [14]): not detected
Decomposition efficiency of glycitin family in concentrated soybean protein (Crude diglycosidase; [15]): not detected
Decomposition efficiency of glycitin family in roasted soy flour (Crude diglycosidase; [15]): not detected
Decomposition efficiency of glycitin family in soymilk (Crude diglycosidase; [15]): not detected
Decomposition efficiency of glycitin family in concentrated soybean protein (Crude diglycosidase; [16]): 52.9%
Decomposition efficiency of glycitin family in roasted soy flour (Crude diglycosidase; [16]): 51.7%
Decomposition efficiency of glycitin family in soymilk (Crude diglycosidase; [16]): 53.5%
Decomposition efficiency of glycitin family in defatted soybean (Crude diglycosidase; 65° C., heat treatment of enzyme no, reaction time 0 h): not detected
Decomposition efficiency of glycitin family in defatted soybean (Crude diglycosidase; 65° C., heat treatment of enzyme no, reaction time 1 h): not detected
Decomposition efficiency of glycitin family in defatted soybean (Crude diglycosidase; 65° C., heat treatment of enzyme no, reaction time 3 h): not detected
Decomposition efficiency of glycitin family in defatted soybean (Crude diglycosidase; 65° C., heat treatment of enzyme no, reaction time 6 h): not detected
Decomposition efficiency of glycitin family in defatted soybean (Crude diglycosidase; 65° C., heat treatment of enzyme yes, reaction time 6 h): not detected
Decomposition efficiency of glycitin family in concentrated soybean protein (Crude diglycosidase; [17]): 52.2%
Decomposition efficiency of glycitin family in roasted soy flour (Crude diglycosidase; [17]): 50.9%
Decomposition efficiency of glycitin family in soymilk (Crude diglycosidase; [17]): 43.9%
Decomposition efficiency of glycitin family in concentrated soybean protein (Crude diglycosidase; [18]): 5.2%
Decomposition efficiency of glycitin family in roasted soy flour (Crude diglycosidase; [18]): not detected
Decomposition efficiency of glycitin family in soymilk (Crude diglycosidase; [18]): not detected
Decomposition efficiency of glycitin family in concentrated soybean protein (Crude diglycosidase; [19]): not detected
Decomposition efficiency of glycitin family in roasted soy flour (Crude diglycosidase; [19]): not detected
Decomposition efficiency of glycitin family in soymilk (Crude diglycosidase; [19]): not detected
Decomposition efficiency of glycitin family in concentrated soybean protein (Crude diglycosidase; [20]): not detected
Decomposition efficiency of glycitin family in roasted soy flour (Crude diglycosidase; [20]): not detected
Decomposition efficiency of glycitin family in soymilk (Crude diglycosidase; [20]): not detected
Decomposition efficiency of glycitin family in concentrated soybean protein (Crude diglycosidase; [21]): 52.5%
Decomposition efficiency of glycitin family in roasted soy flour (Crude diglycosidase; [21]): 50.3%
Decomposition efficiency of glycitin family in soymilk (Crude diglycosidase; [21]): 56.8%
Decomposition efficiency of glycitin family in defatted soybean (Crude diglycosidase; 80° C., heat treatment of enzyme no, reaction time 0 h): not detected
Decomposition efficiency of glycitin family in defatted soybean (Crude diglycosidase; 80° C., heat treatment of enzyme no, reaction time 1 h): not detected
Decomposition efficiency of glycitin family in defatted soybean (Crude diglycosidase; 80° C., heat treatment of enzyme no, reaction time 3 h): not detected
Decomposition efficiency of glycitin family in defatted soybean (Crude diglycosidase; 80° C., heat treatment of enzyme no, reaction time 6 h): not detected
Decomposition efficiency of glycitin family in defatted soybean (Crude diglycosidase; 80° C., heat treatment of enzyme yes, reaction time 6 h): not detected
Decomposition efficiency of glycitin family in concentrated soybean protein (Crude diglycosidase; [22]): 52.3%
Decomposition efficiency of glycitin family in roasted soy flour (Crude diglycosidase; [22]): 51.3%
Decomposition efficiency of glycitin family in soymilk (Crude diglycosidase; [22]): 42.6%
Decomposition efficiency of glycitin family in concentrated soybean protein (Crude diglycosidase; [23]): 39.7%
Decomposition efficiency of glycitin family in roasted soy flour (Crude diglycosidase; [23]): 19.2%
Decomposition efficiency of glycitin family in soymilk (Crude diglycosidase; [23]): 10.7%
Decomposition efficiency of glycitin family in concentrated soybean protein (Crude diglycosidase; [24]): 40.5%
Decomposition efficiency of glycitin family in roasted soy flour (Crude diglycosidase; [24]): 20.5%
Decomposition efficiency of glycitin family in soymilk (Crude diglycosidase; [24]): 22.5%
Decomposition efficiency of glycitin family in concentrated soybean protein (Crude diglycosidase; [25]): 41.7%
Decomposition efficiency of glycitin family in roasted soy flour (Crude diglycosidase; [25]): 33.6%
Decomposition efficiency of glycitin family in soymilk (Crude diglycosidase; [25]): 44.2%
Decomposition efficiency of glycitin family in concentrated soybean protein (Crude diglycosidase; [26]): 53.6%
Decomposition efficiency of glycitin family in roasted soy flour (Crude diglycosidase; [26]): 50.6%
Decomposition efficiency of glycitin family in soymilk (Crude diglycosidase; [26]): 71.4%
SMILES: COc1cc2c(=O)c(-c3ccc(O)cc3)coc2cc1O[C@@H]1O[C@H](CO)[C@@H](O)[C@H](O)[C@H]1O [glycitin]
